Experimental data as given in ChEMBL document CHEMBL1201862, “PubChem BioAssay data set” (2004).
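96-well plates; 48 h exposure; 5 concentrations. Endpoints by linear interpolation between flanking doses. Not reached: highest tested concentration assigned. GI50: concentration for 50% inhibition of growth.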 The source made the active and inactive calls. Rule as the data show it: active = GI50 up to about 1.1 µM and inactive = higher.

Legend:
Assay in all cases: NCI tumour cell line growth inhibition, 48 h
HCT-116 = system: HCT-116
IGROV-1 = system: IGROV-1
MDA-MB-231 = system: MDA-MB-231
SR = system: SR
SK-OV-3 = system: SK-OV-3
HCT-15 = system: HCT-15
UO-31 = system: UO-31
A549 = system: A549
RPMI-8226 = system: RPMI-8226
NCI-H460 = system: NCI-H460
K562 = system: K562
MDA-MB-435 = system: MDA-MB-435
OVCAR-5 = system: OVCAR-5
MOLT-4 = system: MOLT-4
TK-10 = system: TK-10
SF-539 = system: SF-539
NCI-H226 = system: NCI-H226
CAKI-1 = system: CAKI-1
CCRF-CEM = system: CCRF-CEM
EKVX = system: EKVX
SK-MEL-5 = system: SK-MEL-5
LOX IMVI = system: LOX IMVI
SW-620 = system: SW-620
OVCAR-4 = system: OVCAR-4
KM12 = system: KM12
DU-145 = system: DU-145
OVCAR-8 = system: OVCAR-8
ACHN = system: ACHN
A498 = system: A498
HOP-62 = system: HOP-62
NCI/ADR-RES = system: NCI/ADR-RES
SK-MEL-28 = system: SK-MEL-28
MCF7 = system: MCF7
HL-60 = system: HL-60
SN12C = system: SN12C
SNB-75 = system: SNB-75
MDA-N = system: MDA-N
T47D = system: T47D
SNB-19 = system: SNB-19
OVCAR-3 = system: OVCAR-3
M14 = system: M14
U-251 = system: U-251
786-0 = system: 786-0
UACC-62 = system: UACC-62
UACC-257 = system: UACC-257
PC-3 = system: PC-3
HOP-92 = system: HOP-92
NCI-H522 = system: NCI-H522
SF-268 = system: SF-268
NCI-H23 = system: NCI-H23
Hs-578T = system: Hs-578T
HT-29 = system: HT-29
SK-MEL-2 = system: SK-MEL-2
SF-295 = system: SF-295
COLO 205 = system: COLO 205
HCC 2998 = system: HCC 2998

CON(C)C(=O)C1CCCO1 (stereo not drawn)
GI50 (HCT-116): > 100 µM (inactive) | GI50 (IGROV-1): > 100 µM (inactive) | GI50 (MDA-MB-231): > 100 µM (inactive) | GI50 (SR): > 100 µM (inactive) | GI50 (SK-OV-3): > 100 µM (inactive) | GI50 (HCT-15): > 100 µM | GI50 (UO-31): > 100 µM (inactive) | GI50 (A549): > 100 µM (inactive) | GI50 (RPMI-8226): 68.7 µM (inactive) | GI50 (NCI-H460): > 100 µM (inactive) | GI50 (K562): > 100 µM (inactive) | GI50 (MDA-MB-435): > 100 µM (inactive) | GI50 (OVCAR-5): > 100 µM (inactive) | GI50 (MOLT-4): > 100 µM (inactive) | GI50 (TK-10): > 100 µM (inactive) | GI50 (SF-539): > 100 µM (inactive) | GI50 (NCI-H226): > 100 µM (inactive) | GI50 (CAKI-1): > 100 µM (inactive) | GI50 (CCRF-CEM): > 100 µM (inactive) | GI50 (EKVX): 39.5 µM (inactive) | GI50 (SK-MEL-5): 67 µM (inactive) | GI50 (LOX IMVI): > 100 µM (inactive) | GI50 (SW-620): > 100 µM (inactive) | GI50 (OVCAR-4): > 100 µM (inactive) | GI50 (KM12): > 100 µM (inactive) | GI50 (DU-145): > 100 µM (inactive) | GI50 (OVCAR-8): > 100 µM (inactive) | GI50 (ACHN): > 100 µM (inactive) | GI50 (A498): > 100 µM (inactive) | GI50 (HOP-62): > 100 µM (inactive) | GI50 (NCI/ADR-RES): > 100 µM (inactive) | GI50 (SK-MEL-28): > 100 µM (inactive) | GI50 (MCF7): > 100 µM (inactive) | GI50 (HL-60): 34.5 µM (inactive) | GI50 (SN12C): > 100 µM (inactive) | GI50 (SNB-75): > 100 µM (inactive) | GI50 (MDA-N): > 100 µM (inactive) | GI50 (T47D): > 100 µM (inactive) | GI50 (SNB-19): > 100 µM (inactive) | GI50 (OVCAR-3): > 100 µM (inactive) | GI50 (M14): > 100 µM (inactive) | GI50 (U-251): > 100 µM (inactive) | GI50 (786-0): > 100 µM (inactive) | GI50 (UACC-62): > 100 µM (inactive) | GI50 (UACC-257): 57.5 µM (inactive) | GI50 (PC-3): > 100 µM (inactive) | GI50 (HOP-92): > 100 µM (inactive) | GI50 (NCI-H522): > 100 µM (inactive) | GI50 (SF-268): > 100 µM (inactive) | GI50 (NCI-H23): 18.5 µM (inactive) | GI50 (Hs-578T): > 100 µM (inactive) | GI50 (HT-29): > 100 µM (inactive) | GI50 (SK-MEL-2): > 100 µM (inactive) | GI50 (SF-295): > 100 µM (inactive) | GI50 (COLO 205): > 100 µM (inactive)

COC(=NC(C)C)NC(C)C
GI50 (HCT-116): > 100 µM (inactive) | GI50 (IGROV-1): > 100 µM (inactive) | GI50 (MDA-MB-231): > 100 µM (inactive) | GI50 (SR): 77.3 µM (inactive) | GI50 (SK-OV-3): > 100 µM (inactive) | GI50 (HCT-15): > 100 µM | GI50 (UO-31): > 100 µM (inactive) | GI50 (A549): > 100 µM (inactive) | GI50 (RPMI-8226): > 100 µM (inactive) | GI50 (NCI-H460): > 100 µM (inactive) | GI50 (K562): > 100 µM (inactive) | GI50 (MDA-MB-435): > 100 µM (inactive) | GI50 (OVCAR-5): > 100 µM (inactive) | GI50 (MOLT-4): > 100 µM (inactive) | GI50 (TK-10): > 100 µM (inactive) | GI50 (SF-539): > 100 µM (inactive) | GI50 (NCI-H226): > 100 µM (inactive) | GI50 (CCRF-CEM): > 100 µM (inactive) | GI50 (EKVX): > 100 µM (inactive) | GI50 (SK-MEL-5): > 100 µM (inactive) | GI50 (LOX IMVI): > 100 µM (inactive) | GI50 (SW-620): > 100 µM (inactive) | GI50 (DU-145): > 100 µM (inactive) | GI50 (OVCAR-8): > 100 µM (inactive) | GI50 (ACHN): > 100 µM (inactive) | GI50 (A498): > 100 µM (inactive) | GI50 (HOP-62): > 100 µM (inactive) | GI50 (NCI/ADR-RES): > 100 µM (inactive) | GI50 (SK-MEL-28): > 100 µM (inactive) | GI50 (MCF7): > 100 µM (inactive) | GI50 (HL-60): > 100 µM (inactive) | GI50 (SN12C): > 100 µM (inactive) | GI50 (SNB-75): > 100 µM (inactive) | GI50 (HCC 2998): > 100 µM (inactive) | GI50 (MDA-N): > 100 µM (inactive) | GI50 (T47D): > 100 µM (inactive) | GI50 (SNB-19): > 100 µM (inactive) | GI50 (M14): > 100 µM (inactive) | GI50 (U-251): > 100 µM (inactive) | GI50 (786-0): > 100 µM (inactive) | GI50 (UACC-62): > 100 µM (inactive) | GI50 (PC-3): > 100 µM (inactive) | GI50 (HOP-92): > 100 µM (inactive) | GI50 (SF-268): > 100 µM (inactive) | GI50 (NCI-H23): > 100 µM (inactive) | GI50 (Hs-578T): > 100 µM (inactive) | GI50 (SK-MEL-2): > 100 µM (inactive) | GI50 (COLO 205): > 100 µM (inactive)
